Test results from patent US10160748B2 (AbbVie Inc., priority 2015, dated 2018).
pIC50: −log10 of the molar value.

Target: TNFα trimer (Homo sapiens, UniProt P01375)
Assay: TNFα FP Competitive Binding Assay
Conditions: FP binding assay; 20 nM TNFα trimer, 1 nM OregonGreen488 probe; read-out: TNF IC50
Procedure, shortened: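 Fluorescence polarization competition: 20 nM TNFα trimer with 1 nM fluorescein-labelled probe in HEPES/NaCl/EDTA/Triton X-100 buffer, compound in 12-point 1:3 dilutions (final top 338 μM or 100 μM). Incubated 18-24 h, background-subtracted mP read, variable-slope dose-response fitting.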

Sequence of TNFα trimer (P01375 77-233 limits assumed): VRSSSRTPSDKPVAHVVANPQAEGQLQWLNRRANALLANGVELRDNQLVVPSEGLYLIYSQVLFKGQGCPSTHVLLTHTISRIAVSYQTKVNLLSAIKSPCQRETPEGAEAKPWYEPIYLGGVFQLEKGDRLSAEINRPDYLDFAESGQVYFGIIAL

`Cc1ccc(OC(F)F)c(Cn2c3cc(-c4cnc(N5CCC[C@H]5CO)nc4)ccc3c(=O)n2C)c1` [Example 22.7] and `Cc1ccc(OC(F)F)c(Cn2c3cc(-c4cnc(C(C)(C)CO)nc4)ccc3c(=O)n2C)c1` [Example 22.9] fall in the same range of pIC50: 5.00 to 6.00 for the first, 5.00 to 6.00 for the second.

First: Cc1ccc(C#N)c(Cn2c3cc(-c4cnc(N5CCN6C(=O)NC[C@H]6C5)nc4)ccc3c(=O)n2C)c1 [Example 37, (S)-4-Methyl-2-((2-methyl-3-oxo-6-(2-(3-oxohexahydroimidazo[1,5-a]pyrazin-7(1H)-yl)pyrimidin-5-yl)-2,3-dihydro-1H-indazol-1-yl)methyl)benzonitrile]
Second: Cc1ccc(OC(F)F)c(Cn2c3cc(-c4cnc(N5CCN(S(C)(=O)=O)[C@@H](C)C5)nc4)ccc3c(=O)n2C)c1 [Example 41, (S)-1-(2-(Difluoromethoxy)-5-methylbenzyl)-2-methyl-6-(2-(3-methyl-4-(methylsulfonyl)piperazin-1-yl)pyrimidin-5-yl)-1H-indazol-3(2H)-one]
The pIC50 of the first is lower: 5.00 to 6.00 for the first, > 6.00 for the second. The second is the more potent here.

First: Cn1c(=O)c2ccc(-c3cnc(N4CCC(c5nsc(=O)[nH]5)CC4)nc3)cc2n1Cc1ccccc1OC(F)F [Example 2.28]
Second: Cn1c(=O)c2ncc(-c3cnc(N4CCOCC4)nc3)cc2n1Cc1ccccc1OC(F)F [Example 14, 1-(2-(Difluoromethoxy)benzyl)-2-methyl-6-(2-morpholinopyrimidin-5-yl)-1H-pyrazolo[4,3-b]pyridin-3(2H)-one]
The pIC50 of the first is higher: 5.00 to 6.00 for the first, < 5.00 for the second. The first is the more potent here.

First: Cc1ccc(OC(F)F)c(Cn2c3cc(-c4cnc(C(C)(C)O)nc4)c(F)cc3c(=O)n2C)c1 [Example 17.1]
Second: Cc1ccc(OC(F)F)c(Cn2c3c(F)c(-c4cnc(C(C)(C)O)nc4)ccc3c(=O)n2C)c1 [Example 26.1]
The pIC50 of the first is higher: > 6.00 for the first, 5.00 to 6.00 for the second.

`Cn1c(=O)c2ccc(-c3nc(N4CCOCC4)no3)cc2n1Cc1ccccc1OC(F)F` [Example 13, 1-(2-(Difluoromethoxy)benzyl)-2-methyl-6-(3-morpholino-1,2,4-oxadiazol-5-yl)-1H-indazol-3(2H)-one] and `Cn1c(=O)c2ccc(-c3cnc(C4(O)CCN(C=O)CC4)nc3)cc2n1Cc1ccccc1OC(F)F` [Example 20, 4-(5-(1-(2-(Difluoromethoxy)benzyl)-2-methyl-3-oxo-2,3-dihydro-1H-indazol-6-yl)pyrimidin-2-yl)-4-hydroxypiperidine-1-carbaldehyde] fall in the same range of pIC50: 5.00 to 6.00 for the first, 5.00 to 6.00 for the second.

Compared with `CC(=O)N1CCN(c2ncc(-c3ccc4c(=O)n(C)n(Cc5cc(CN6CCN(C)C6=O)ccc5OC(F)F)c4c3)cn2)C[C@H]1C` [Example #129*, (R)-6-(2-(4-Acetyl-3-methylpiperazin-1-yl)pyrimidin-5-yl)-1-(2-(difluoromethoxy)-5-((3-methyl-2-oxoimidazolidin-1-yl)methyl)benzyl)-2-methyl-1H-indazol-3(2H)-one], `C[C@@H]1CN(c2ncc(-c3ccc4c(=O)n(C)n(Cc5ccccc5OC(F)F)c4c3F)cn2)CCN1C(=O)CO` [Example 24.6] is higher in pIC50: 5.00 to 6.00 for the first, > 6.00 for the second.

`Cc1nc(N2CCN(C(=O)CO)C[C@H]2C)ncc1-c1ccc2c(=O)n(C)n(Cc3ccccc3OC(F)F)c2c1` [Example 10.10] and `Cc1ccc(OC(F)F)c(Cn2c3nc(-c4cnc(N5CCN(C(=O)CO)C[C@H]5C)nc4)ccc3c(=O)n2C)c1` [Example 80, (R)-1-(2-(Difluoromethoxy)-5-methylbenzyl)-6-(2-(4-(2-hydroxyacetyl)-2-methylpiperazin-1-yl)pyrimidin-5-yl)-2-methyl-1H-pyrazolo[3,4-b]pyridin-3(2H)-one] cannot be ordered by pIC50: > 6.00 for the first, > 6.00 for the second.

`Cc1ccc(Cl)c(Cn2c3nc(-c4cnc(N5CCN(C(=O)CO)C[C@H]5C)nc4)ccc3c(=O)n2C)c1` [Example 81, (R)-1-(2-Chloro-5-methylbenzyl)-6-(2-(4-(2-hydroxyacetyl)-2-methylpiperazin-1-yl)pyrimidin-5-yl)-2-methyl-1H-pyrazolo[3,4-b]pyridin-3(2H)-one] and `C[C@@H]1CN(c2ncc(-c3ccc4c(=O)n(C)n(Cc5ccccc5OC(F)F)c4c3C#N)cn2)CCN1C(=O)CO` [Example 23.3] cannot be ordered by pIC50: > 6.00 for the first, > 6.00 for the second.
